Data on 21 compounds can be found in patent US10745382B2 (BRISTOL-MYERS SQUIBB COMPANY, priority 2015, dated 2020).

The term IC50 denotes the point on the concentration scale where inhibition reaches its midpoint.

SMILES strings stand for the structures. Like-named read-outs stand apart in the source and are kept apart here.

The test addresses T1, PD-1/PD-L1 (Homo sapiens, UniProt Q9NZQ7).
T1 construct: made in house; host or cells: HEK293T
Nature of the test: PD-1/PD-L1 Homogenous Time-Resolved Fluorescence (HTRF) binding assay. The settings on record: PD-L1-His 10 nM, PD-1-Ig 20 nM, read-out: Range or IC50. Summed up:
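Detection by europium cryptate anti-Ig plus APC anti-His (1 nM and 20 nM final) with HTRF signal. Buffer was dPBS, 0.1% BSA, 0.05% Tween-20.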
A general note: Time-resolved FRET reads energy transfer from a long-lived donor to a nearby acceptor.

T1 sequence (Q9NZQ7 with tags, fused parts or gaps): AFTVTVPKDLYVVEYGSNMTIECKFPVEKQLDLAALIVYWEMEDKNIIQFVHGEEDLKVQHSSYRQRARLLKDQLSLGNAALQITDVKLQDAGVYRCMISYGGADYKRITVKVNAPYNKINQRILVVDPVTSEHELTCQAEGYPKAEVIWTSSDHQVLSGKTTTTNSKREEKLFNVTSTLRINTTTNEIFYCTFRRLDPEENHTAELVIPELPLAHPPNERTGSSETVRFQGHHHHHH

Regarding `COc1ccccc1N1CCN(CCCOc2cccc(-c3cccc(COc4cc(OCc5cncc(C#N)c5)c(CN5CCCC[C@H]5C(=O)O)cc4Cl)c3C)c2C)CC1` [Example 2219, (2S)-1-(5-chloro-2-((5-cyanopyridin-3-yl)methoxy)-4-((3′-(3-(4-(2-methoxyphenyl)piperazin-1-yl)propoxy)-2,2′-dimethylbiphenyl-3-yl)methoxy)benzyl)piperidine-2-carboxylic Acid], where the note is “value given as range class”, the concentration for half-maximal inhibition (IC50) is 0.21 to 10 nM.

Take `Cc1c(COc2cc(OCc3cncc(C#N)c3)c(CN3CCCC[C@H]3C(=O)O)cc2Cl)cccc1-c1cccc(OCCCNC[C@H](O)c2ccccc2)c1C` [Example 2220, (2S)-1-(5-chloro-2-((5-cyanopyridin-3-yl)methoxy)-4-((3′-(3-((R)-2-hydroxy-2-phenylethylamino)propoxy)-2,2′-dimethylbiphenyl-3-yl)methoxy)benzyl)piperidine-2-carboxylic Acid]: the IC50 (value given as range class) lay in the range of 0.21 to 10 nM.

With `Cc1c(COc2cc(OCc3cncc(C#N)c3)c(CN3CCCC[C@H]3C(=O)O)cc2Cl)cccc1-c1cccc(OCCCNC[C@@H](O)c2ccccc2)c1C` [Example 2221, (2S)-1-(5-chloro-2-((5-cyanopyridin-3-yl)methoxy)-4-((3′-(3-((S)-2-hydroxy-2-phenylethylamino)propoxy)-2,2′-dimethylbiphenyl-3-yl)methoxy)benzyl)piperidine-2-carboxylic Acid], the 50% inhibitory concentration (IC50) (value given as range class) is 0.21 to 10 nM.

With `Cc1c(COc2cc(OCc3cncc(C#N)c3)c(CN3CCCC[C@H]3C(=O)O)cc2Cl)cccc1-c1cccc(OCCCNCC(O)c2ccccn2)c1C` (stereo partly drawn) [Example 2222, (2S)-1-(5-chloro-2-((5-cyanopyridin-3-yl)methoxy)-4-((3′-(3-(2-hydroxy-2-(pyridin-2-yl)ethylamino)propoxy)-2,2′-dimethylbiphenyl-3-yl)methoxy)benzyl)piperidine-2-carboxylic Acid], the IC50 (value given as range class) fell in the range of 0.21 to 10 nM.

For the compound `Cc1c(COc2cc(OCc3cncc(C#N)c3)c(CN3CCCC[C@H]3C(=O)O)cc2Cl)cccc1-c1cccc(OCCCN2CCC[C@@H](O)C2)c1C` [Example 2223, (2S)-1-(5-chloro-2-((5-cyanopyridin-3-yl)methoxy)-4-((3′-(3-((R)-3-hydroxypiperidin-1-yl)propoxy)-2,2′-dimethylbiphenyl-3-yl)methoxy)benzyl)piperidine-2-carboxylic Acid], the IC50 (value given as range class) is 0.21 to 10 nM.

Turning to `Cc1c(COc2cc(OCc3cncc(C#N)c3)c(CN3CCCC[C@H]3C(=O)O)cc2Cl)cccc1-c1cccc(OCCCN2CCC[C@H](O)C2)c1C` [Example 2224, (2S)-1-(5-chloro-2-((5-cyanopyridin-3-yl)methoxy)-4-((3′-(3-((S)-3-hydroxypiperidin-1-yl)propoxy)-2,2′-dimethylbiphenyl-3-yl)methoxy)benzyl)piperidine-2-carboxylic Acid], the IC50 (value given as range class) was in the range of 0.21 to 10 nM.

Take `Cc1c(COc2cc(OCc3cncc(C#N)c3)c(CN3CCCC[C@H]3C(=O)O)cc2Cl)cccc1-c1cccc(OCCCNCCc2ccccn2)c1C` [Example 2225, (2S)-1-(5-chloro-2-((5-cyanopyridin-3-yl)methoxy)-4-((2,2′-dimethyl-3′-(3-(2-(pyridin-2-yl)ethylamino)propoxy)biphenyl-3-yl)methoxy)benzyl)piperidine-2-carboxylic Acid]: the IC50 (value given as range class) was in the range of 0.21 to 10 nM.

Turning to `Cc1c(COc2cc(OCc3cncc(C#N)c3)c(CN3CCCC[C@H]3C(=O)O)cc2Cl)cccc1-c1cccc(OCCCN(C)Cc2cccnc2)c1C` [Example 2226, (2S)-1-(5-chloro-2-((5-cyanopyridin-3-yl)methoxy)-4-((2,2′-dimethyl-3′-(3-(methyl(pyridin-3-ylmethyl)amino)propoxy)biphenyl-3-yl)methoxy)benzyl)piperidine-2-carboxylic Acid], under “value given as range class”, the concentration for half-maximal inhibition (IC50) is 0.21 to 10 nM.

For the compound `Cc1c(COc2cc(OCc3cncc(C#N)c3)c(CN3CCCC[C@H]3C(=O)O)cc2Cl)cccc1-c1cccc(OCCCNC23CC4CC(CC(C4)C2)C3)c1C` [Example 2227, (S)-1-(4-((3′-(3-((3s,5s,7s)-adamantan-1-ylamino)propoxy)-2,2′-dimethyl-[1,1′-biphenyl]-3-yl)methoxy)-5-chloro-2-((5-cyanopyridin-3-yl)methoxy)benzyl)piperidine-2-carboxylic Acid], the IC50 (value given as range class) was in the range of 0.21 to 10 nM.

For `Cc1c(COc2cc(OCc3cncc(C#N)c3)c(CN3CCCC[C@H]3C(=O)O)cc2Cl)cccc1-c1cccc(OCCCN(C)Cc2ccccn2)c1C` [Example 2228, (2S)-1-(5-chloro-2-((5-cyanopyridin-3-yl)methoxy)-4-((2,2′-dimethyl-3′-(3-(methyl(pyridin-2-ylmethyl)amino)propoxy)biphenyl-3-yl)methoxy)benzyl)piperidine-2-carboxylic Acid], the IC50 (value given as range class) lay within 10 to 100 nM.

For the compound `COC(=O)[C@H]1CC[C@H](NCCCOc2cccc(-c3cccc(COc4cc(OCc5cncc(C#N)c5)c(CN5CCCC[C@H]5C(=O)O)cc4Cl)c3C)c2C)CC1` [Example 2229, (2S)-1-(5-chloro-2-((5-cyanopyridin-3-yl)methoxy)-4-((3′-(3-((1r,4r)-4-(methoxycarbonyl)cyclohexylamino)propoxy)-2,2′-dimethylbiphenyl-3-yl)methoxy)benzyl)piperidine-2-carboxylic Acid], the concentration for half-maximal inhibition (IC50) (value given as range class) fell in the range of 0.21 to 10 nM.

Take `Cc1c(COc2cc(OCc3cncc(C#N)c3)c(CN3CCCC[C@H]3C(=O)O)cc2Cl)cccc1-c1cccc(OCCCN[C@@H](CO)c2ccccc2)c1C` [Example 2230, (2S)-1-(5-chloro-2-((5-cyanopyridin-3-yl)methoxy)-4-((3′-(3-((R)-2-hydroxy-1-phenylethylamino)propoxy)-2,2′-dimethylbiphenyl-3-yl)methoxy)benzyl)piperidine-2-carboxylic Acid]: the concentration for half-maximal inhibition (IC50) (value given as range class) fell in the range of 0.21 to 10 nM.

With `Cc1c(COc2cc(OCc3cncc(C#N)c3)c(CN3CCCC[C@H]3C(=O)O)cc2Cl)cccc1-c1cccc(OCCCNCCc2ncn(C)c2Cl)c1C` [Example 2231, (2S)-1-(5-chloro-4-((3′-(3-(2-(5-chloro-1-methyl-1H-imidazol-4-yl)ethylamino)propoxy)-2,2′-dimethylbiphenyl-3-yl)methoxy)-2-((5-cyanopyridin-3-yl)methoxy)benzyl)piperidine-2-carboxylic Acid], the 50% inhibitory concentration (IC50) (numeric IC50) was determined as 12 nM.

`Cc1c(COc2cc(OCc3cncc(C#N)c3)c(CN3CCCC[C@H]3C(=O)O)cc2Cl)cccc1-c1cccc(OCCCN2CC(N(C)C)C2)c1C` [Example 2232, (2S)-1-(5-chloro-2-((5-cyanopyridin-3-yl)methoxy)-4-((3′-(3-(3-(dimethylamino)azetidin-1-yl)propoxy)-2,2′-dimethylbiphenyl-3-yl)methoxy)benzyl)piperidine-2-carboxylic Acid]: the IC50 (value given as range class) is 0.21 to 10 nM.

For the compound `Cc1c(COc2cc(OCc3cncc(C#N)c3)c(CN3CCCC[C@H]3C(=O)O)cc2Cl)cccc1-c1cccc(OCCCN(C)CCO)c1C` [Example 2233, (2S)-1-(5-chloro-2-((5-cyanopyridin-3-yl)methoxy)-4-((3′-(3-((2-hydroxyethyl)(methyl)amino)propoxy)-2,2′-dimethylbiphenyl-3-yl)methoxy)benzyl)piperidine-2-carboxylic Acid], for the setting “value given as range class”, the half-maximal inhibitory concentration (IC50) lay in the range of 0.21 to 10 nM.

For the compound `Cc1c(COc2cc(OCc3cncc(C#N)c3)c(CN3CCCC[C@H]3C(=O)O)cc2Cl)cccc1-c1cccc(OCCCNCC(C)(C)CO)c1C` [Example 2234, (2S)-1-(5-chloro-2-((5-cyanopyridin-3-yl)methoxy)-4-((3′-(3-(3-hydroxy-2,2-dimethylpropylamino)propoxy)-2,2′-dimethylbiphenyl-3-yl)methoxy)benzyl)piperidine-2-carboxylic Acid], for the setting “value given as range class”, the IC50 lay within 0.21 to 10 nM.

Consider `Cc1c(COc2cc(OCc3cncc(C#N)c3)c(CN3CCCC[C@H]3C(=O)O)cc2Cl)cccc1-c1cccc(OCCCNCC(O)CO)c1C` (stereo partly drawn) [Example 2235, (2S)-1-(5-chloro-2-((5-cyanopyridin-3-yl)methoxy)-4-((3′-(3-(2,3-dihydroxypropylamino)propoxy)-2,2′-dimethylbiphenyl-3-yl)methoxy)benzyl)piperidine-2-carboxylic Acid], for which the IC50 (value given as range class) is 0.21 to 10 nM.

Regarding `Cc1c(COc2cc(OCc3cncc(C#N)c3)c(CN3CCCC[C@H]3C(=O)O)cc2Cl)cccc1-c1cccc(OCCCN(CCO)Cc2ccccc2)c1C` [Example 2236, (2S)-1-(4-((3′-(3-(benzyl(2-hydroxyethyl)amino)propoxy)-2,2′-dimethylbiphenyl-3-yl)methoxy)-5-chloro-2-((5-cyanopyridin-3-yl)methoxy)benzyl)piperidine-2-carboxylic Acid], the IC50 (value given as range class) lay within 0.21 to 10 nM.

For `Cc1c(COc2cc(OCc3cncc(C#N)c3)c(CN3CCCC[C@H]3C(=O)O)cc2Cl)cccc1-c1cccc(OCCCN[C@@H](CO)C(C)C)c1C` [Example 2237, (2S)-1-(5-chloro-2-((5-cyanopyridin-3-yl)methoxy)-4-((3′-(3-((R)-1-hydroxy-3-methylbutan-2-ylamino)propoxy)-2,2′-dimethylbiphenyl-3-yl)methoxy)benzyl)piperidine-2-carboxylic Acid], the IC50 (value given as range class) is 0.21 to 10 nM.

Consider `Cc1c(COc2cc(OCc3cncc(C#N)c3)c(CN3CCCC[C@H]3C(=O)O)cc2Cl)cccc1-c1cccc(OCCCN[C@H](CO)C(C)C)c1C` [Example 2238, (2S)-1-(5-chloro-2-((5-cyanopyridin-3-yl)methoxy)-4-((3′-(3-((S)-1-hydroxy-3-methylbutan-2-ylamino)propoxy)-2,2′-dimethylbiphenyl-3-yl)methoxy)benzyl)piperidine-2-carboxylic Acid], for which, under “value given as range class”, the IC50 was in the range of 0.21 to 10 nM.

`Cc1c(COc2cc(OCc3cncc(C#N)c3)c(CN[C@@](C)(CO)C(=O)O)cc2Cl)cccc1-c1cccc(OCCCN2CCC[C@@H](C(=O)O)C2)c1C` [Example 2239, (3R)-1-(3-(3′-((4-(((S)-2-carboxy-1-hydroxypropan-2-ylamino)methyl)-2-chloro-5-((5-cyanopyridin-3-yl)methoxy)phenoxy)methyl)-2,2′-dimethylbiphenyl-3-yloxy)propyl)piperidine-3-carboxylic Acid]: the half-maximal inhibitory concentration (IC50) (value given as range class) lay in the range of 0.21 to 10 nM.
